# Assay results reported in patent publication US12729377B2, “RNAi agents and compositions for inhibiting expression of angiopoietin-like 3 (ANGPTL3), and methods of use” (Arrowhead Pharmaceuticals, Inc., priority 2017, dated 2026).
# In the oligonucleotide strings, read from the 5' end, every base follows the letter of its sugar. An asterisk marks phosphorothioate; unmarked linkages are phosphodiester. Other units and linkages are bracketed, terminal groups are in braces. A string of capitals states the bases alone. {NAG37} = tridentate N-acetyl-galactosamine targeting ligand, structure (NAG37)s; [invAb] = inverted abasic unit; m = 2'-O-methyl; f = 2'-fluoro
# Experiments:
# Type in all cases: in vivo, cynomolgus macaque (Macaca fascicularis)
# [1] = tested on: ANGPTL3 protein; experiment: Example 8: serum ANGPTL3 protein by ELISA in cynomolgus monkeys; conditions: for Avg ANGPTL3 protein normalized to pre-treatment: 3.0 mg/kg single SC injection day 1, cynos, n=2
# Description: (§1) Additional ANGPTL3 RNAi agents were evaluated in cynomolgus monkeys. On day 1, cynomolgus macaque (Macaca fascicularis) primates (also referred to herein as “cynos”) were administered a single subcutaneous injection of 0.3 mL/kg (approximately 1-2 mL volume, depending on animal mass) containing 3.0 mg/kg of one of ANGPTL3 RNAi agent AD05577, AD05307, AD05488, AD05654, or AD05659, each formulated in saline.
# (§2) Two (2) cynos in each group were tested (n=2). Blood samples were drawn and serum samples were analyzed on days −8 (pre-dose), 1 (pre-dose), 8, 15, 22, 29, and 36. Cynos were fasted overnight prior to each collection. ANGPTL3 protein levels in serum were measured by ELISA assay (R&D Systems), according to the manufacturer's recommendations. Triglycerides, total cholesterol, high-density lipoprotein (HDL), and low-density lipoprotein (LDL) in serum were measured on a Cobas® Integra 400 (Roche Diagnostics), according to the manufacturer's recommendations.
# (§3) The ANGPTL3 protein levels, triglyceride levels, total cholesterol levels, HDL levels, and LDL levels for each animal were normalized. For normalization, the level of ANGPTL3 protein, triglyceride, HDL, and total cholesterol, respectively, for each animal at a time point, was divided by the average pre-treatment level of expression in that animal (in this case at days −8, and 1 (pre-dose)) to determine the ratio of expression “normalized to pre-treatment.”
# [2] = tested on: ANGPTL3 gene; experiment: Example 8: serum LDL in cynomolgus monkeys; conditions: 3.0 mg/kg single SC injection day 1, cynos, n=2
# Description: as §1, §2, §3
# [3] = tested on: ANGPTL3 gene; experiment: Example 8: serum total cholesterol in cynomolgus monkeys; conditions: 3.0 mg/kg single SC injection day 1, cynos, n=2
# Description: as §1, §2, §3
# [4] = tested on: ANGPTL3 gene; experiment: Example 8: serum triglycerides in cynomolgus monkeys; conditions: 3.0 mg/kg single SC injection day 1, cynos, n=2
# Description: as §1, §2, §3
# [5] = tested on: ANGPTL3 gene; experiment: Example 8: serum HDL in cynomolgus monkeys; conditions: 3.0 mg/kg single SC injection day 1, cynos, n=2
# Description: as §1, §2, §3
# [6] = tested on: ANGPTL3 gene; experiment: Example 9: serum LDL in cynomolgus monkeys; conditions: 2.0 mg/kg single SC injection day 1, cynos, n=3
# Description: (§4) Additional ANGPTL3 RNAi agents were evaluated in cynomolgus monkeys. On day 1, cynomolgus macaque (Macaca fascicularis) primates (also referred to herein as “cynos”) were administered a single subcutaneous injection of 0.3 mL/kg (approximately 2-3 mL volume, depending on animal mass) containing 2.0 mg/kg of an ANGPTL3 RNAi agent, which included either AD05488, AD05743, AD05775, or AD05841, each formulated in saline. […] ANGPTL3 RNAi agents AD05488, AD05743, and AD05775 included nucleotide sequences designed to target position 304 of the ANGPTL3 gene. ANGPTL3 RNAi agent AD05841 included nucleotide sequences designed to target position 1035 of the ANGPTL3 gene.
# as §2, with “Three (3)” for “Two (2)”, “(n=3).” for “(n=2).”, “−14 (predose), −7 (predose),” for “−8 (pre-dose),”, “35.” for “36.”
# (§5) The ANGPTL3 protein levels, triglyceride levels, total cholesterol levels, HDL levels, and LDL levels for each animal were normalized. For normalization, the level of ANGPTL3 protein, triglyceride, HDL, and total cholesterol, respectively, for each animal at a time point, was divided by the average pre-treatment level of expression in that animal (in this case at days −14, −7, and 1) to determine the ratio of expression “normalized to pre-treatment.”
# [7] = tested on: ANGPTL3 gene; experiment: Example 9: serum HDL in cynomolgus monkeys; conditions: 2.0 mg/kg single SC injection day 1, cynos, n=3
# Description: as §4
# as §2, with “Three (3)” for “Two (2)”, “(n=3).” for “(n=2).”, “−14 (predose), −7 (predose),” for “−8 (pre-dose),”, “35.” for “36.”
# as §5
# [8] = tested on: ANGPTL3 gene; experiment: Example 9: serum triglycerides in cynomolgus monkeys; conditions: 2.0 mg/kg single SC injection day 1, cynos, n=3
# Description: as §4
# as §2, with “Three (3)” for “Two (2)”, “(n=3).” for “(n=2).”, “−14 (predose), −7 (predose),” for “−8 (pre-dose),”, “35.” for “36.”
# as §5
# [9] = tested on: ANGPTL3 gene; experiment: Example 9: serum total cholesterol in cynomolgus monkeys; conditions: 2.0 mg/kg single SC injection day 1, cynos, n=3
# Description: as §4
# as §2, with “Three (3)” for “Two (2)”, “(n=3).” for “(n=2).”, “−14 (predose), −7 (predose),” for “−8 (pre-dose),”, “35.” for “36.”
# as §5
# [10] = tested on: ANGPTL3 protein; experiment: Example 9: serum ANGPTL3 protein by ELISA in cynomolgus monkeys; conditions: for Average ANGPTL3 Protein Normalized to Pre-Treatment: 2.0 mg/kg single SC injection day 1, cynos, n=3
# Description: as §4
# as §2, with “Three (3)” for “Two (2)”, “(n=3).” for “(n=2).”, “−14 (predose), −7 (predose),” for “−8 (pre-dose),”, “35.” for “36.”
# as §5
substance,measurement,setting,value
"AD05577: RNAi agent duplex: antisense AM07350-AS, sense AM07002-SS (antisense mU*fG*mU*mUmGmAmAmUmUmAmAfUmGfUmCfCmAfUmGfG*mA; sense {NAG37}*[invAb]*mUmCmCmAmUmGmGmAfCfAfUmUmAmAmUmUmCmAmAmCmA*[invAb])",Avg ANGPTL3 protein normalized to pre-treatment,[1]; Day 8,0.503
same,Avg ANGPTL3 protein normalized to pre-treatment,[1]; Day 15,0.544
same,Avg ANGPTL3 protein normalized to pre-treatment,[1]; Day 22,0.754
same,Avg ANGPTL3 protein normalized to pre-treatment,[1]; Day 29,0.586
same,Avg ANGPTL3 protein normalized to pre-treatment,[1]; Day 36,0.479
same,reduction in ANGPTL3 protein compared to pre-treatment,"[1]; all measured time points, single 3.0 mg/kg subcutaneous, cynomolgus monkeys",reduction
same,Average LDL Normalized to Pre-Treatment,[2]; Day 8,0.951
same,Average LDL Normalized to Pre-Treatment,[2]; Day 15,1.091
same,Average LDL Normalized to Pre-Treatment,[2]; Day 22,0.860
same,Average LDL Normalized to Pre-Treatment,[2]; Day 29,0.991
same,Average LDL Normalized to Pre-Treatment,[2]; Day 36,0.925
same,Avg Total Chol normalized to pre-treatment,[3]; Day 8,0.885
same,Avg Total Chol normalized to pre-treatment,[3]; Day 15,0.931
same,Avg Total Chol normalized to pre-treatment,[3]; Day 22,0.844
same,Avg Total Chol normalized to pre-treatment,[3]; Day 29,0.839
same,Avg Total Chol normalized to pre-treatment,[3]; Day 36,0.936
same,Avg TG normalized to pre-treatment,[4]; Day 8,1.159
same,Avg TG normalized to pre-treatment,[4]; Day 15,0.977
same,Avg TG normalized to pre-treatment,[4]; Day 22,0.855
same,Avg TG normalized to pre-treatment,[4]; Day 29,0.886
same,Avg TG normalized to pre-treatment,[4]; Day 36,0.748
same,Average HDL Normalized to Pre-Treatment,[5]; Day 8,0.855
same,Average HDL Normalized to Pre-Treatment,[5]; Day 15,0.788
same,Average HDL Normalized to Pre-Treatment,[5]; Day 22,0.818
same,Average HDL Normalized to Pre-Treatment,[5]; Day 29,0.857
same,Average HDL Normalized to Pre-Treatment,[5]; Day 36,0.852
"AD05743: RNAi agent duplex: antisense AM07235-AS, sense AM07579-SS (antisense mU*fA*mC*fUmGfAmUfCmAfAmAfUmAfUmGfUmUfGmAfG*mC; sense {NAG37}*[invAb]*mGmCfUmCfAmAfCmAfUfAfUmUmUmGmAmUmCmAmGmUmA*[invAb])",Average LDL Normalized to Pre-Treatment,[6]; Day 8,1.055
same,Average LDL Normalized to Pre-Treatment,[6]; Day 15,0.825
same,Average LDL Normalized to Pre-Treatment,[6]; Day 22,0.986
same,Average LDL Normalized to Pre-Treatment,[6]; Day 29,0.941
same,Average LDL Normalized to Pre-Treatment,[6]; Day 35,0.911
same,Average HDL Normalized to Pre-Treatment,[7]; Day 8,0.849
same,Average HDL Normalized to Pre-Treatment,[7]; Day 15,0.797
same,Average HDL Normalized to Pre-Treatment,[7]; Day 22,0.666
same,Average HDL Normalized to Pre-Treatment,[7]; Day 29,0.757
same,Average HDL Normalized to Pre-Treatment,[7]; Day 35,0.677
same,Average Triglycerides Normalized to Pre-Treatment,[8]; Day 8,0.646
same,Average Triglycerides Normalized to Pre-Treatment,[8]; Day 15,0.708
same,Average Triglycerides Normalized to Pre-Treatment,[8]; Day 22,0.458
same,Average Triglycerides Normalized to Pre-Treatment,[8]; Day 29,0.479
same,Average Triglycerides Normalized to Pre-Treatment,[8]; Day 35,0.521
same,Average Total Cholesterol Normalized to Pre-Treatment,[9]; Day 8,0.925
same,Average Total Cholesterol Normalized to Pre-Treatment,[9]; Day 15,0.758
same,Average Total Cholesterol Normalized to Pre-Treatment,[9]; Day 22,0.768
same,Average Total Cholesterol Normalized to Pre-Treatment,[9]; Day 29,0.807
same,Average Total Cholesterol Normalized to Pre-Treatment,[9]; Day 35,0.752
same,Average ANGPTL3 Protein Normalized to Pre-Treatment,[10]; Day 8,0.349
same,Average ANGPTL3 Protein Normalized to Pre-Treatment,[10]; Day 15,0.316
same,Average ANGPTL3 Protein Normalized to Pre-Treatment,[10]; Day 22,0.322
same,Average ANGPTL3 Protein Normalized to Pre-Treatment,[10]; Day 29,0.381
same,Average ANGPTL3 Protein Normalized to Pre-Treatment,[10]; Day 35,0.346
same,reduction in ANGPTL3 protein compared to pre-treatment,"[10]; each of the measured time points, single 2.0 mg/kg subcutaneous, cynomolgus monkeys",reduction
